The record followed here is patent publication US7956082B2, “Indole derivative having PGD2 receptor antagonist activity” (Shionogi & Co., Ltd, priority 2005, dated 2011).

In data set [1] the target is T1, DP receptor (Homo sapiens, UniProt Q13258).
T1 construct: endogenous in cells; host or cells: washed platelets from peripheral blood of a healthy volunteer (whole platelets in A1, platelet membrane fraction in A2)
T1 sequence (Q13258 1-359): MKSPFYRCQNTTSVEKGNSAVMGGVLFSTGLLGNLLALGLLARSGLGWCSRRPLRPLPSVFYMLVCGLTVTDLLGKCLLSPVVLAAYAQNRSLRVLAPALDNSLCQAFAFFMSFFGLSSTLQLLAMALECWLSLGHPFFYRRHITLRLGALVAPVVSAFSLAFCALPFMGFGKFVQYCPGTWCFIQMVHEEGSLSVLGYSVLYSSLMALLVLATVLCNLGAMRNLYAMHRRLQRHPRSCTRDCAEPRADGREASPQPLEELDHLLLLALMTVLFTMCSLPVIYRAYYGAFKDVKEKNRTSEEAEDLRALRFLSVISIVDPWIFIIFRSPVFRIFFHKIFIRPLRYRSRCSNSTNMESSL
As to the kind of experiment: cAMP assay with washed platelets (DP inhibitory activity in vitro). The data set is classed as cell-based. The following applies: 100 nM PGD2, cAMP by HTRF, read-out: IC50 (50% DP-inhibitory concentration in the cAMP assay). The procedure: 1) Preparation of Platelet and a Method of cAMP Assay
30 ml of peripheral blood was collected from a healthy volunteer using a syringe containing one ninth amount of 3.8% sodium citrate for diagnosis. After being centrifuged at 180 g for 10 minutes at room temperature, a supernatant was collected and used as Platelet Rich Plasma (PRP). The resulting PRP was washed with wash buffer and centrifuged three times (Washed Platelet: WP) and platelets were counted by a microcell counter. WP was added to a plate in amount of 1.5×10^8/assay and the plate was treated, with 3-isobutyl-1-methylxanthin (IBMX; 0.5 mM) for 5 minutes. A reaction was initiated by adding 100 nM of PGD2 5 min after an addition of a test compound. The reaction was terminated with an addition of 1N HCl after 2 minutes and the cells were destructed using 12% triton X-100. An amount of cAMP in the supernatant was assayed by Homogeneous […] (HTRF)
On the technique in general: cAMP levels reflect the balance of adenylyl cyclase and phosphodiesterase activity.

The subject of a further data set is Brown Norway (BN) Rats. The data set is described as follows: Test using OVA asthma model of rat. The data set is classed as in vivo. Particulars: 10 mg/kg p.o. once a day for three days, vs control group; for inhibition rate (%) increased hyperresponsive airway: AUC of acetylcholine response curve; for inhibition rate (%) mucus-secretion: mucin in airway lavage fluid; for inhibition rate (%) infiltration of inflammatory cells: total cell number in bronchoalveolar washings. The method, then:
Brown Norway (BN) Rats were sensitized by i.p. administration of 0.1 mg/mL of ovalbumin (OVA) and 1 mg of aluminum hydroxide gel. A solution of 1% OVA was aerosolized by ultrasonic nebulizer (NE-U17) and the rats were subjected to inhalation exposure of the aerosol for 30 minutes in an exposing chamber 12, 19, 26 and 33 days after the sensitization. One hour before the 4th exposure of the antigen, compounds of the present invention were administered in a dose of 10 mg/kg p.o. once a day for three days consecutively. In a control group, 0.5% of methyl cellulose was administered in place of the compound of the present invention.
Under pentobarbital anesthesia (80 mg/kg, i.p.), acetylcholine (3.9, 7.8, 15.6, 31.3, 62.5, 125, 250 and 500 μg/kg) was injected to jugular vein of the rats successively from a lower dose at intervals of 5 minutes three days after the fourth exposure to the antigen, and immediate contractile reaction of airways (an increase of insufflation pressure) was measured by a modified method of Konnzett & Rössler. Inhibition rate of increased hyperresponsive airway against the control group was calculated based on area under curve (AUC) obtained from concentration-response curve of acetylcholine.
After the measurement of increased hyperresponsive airway was; completed, bronchoalveoli of the rats were washed with 5 mL of saline three times. Total cell number in the washings was counted by a hemacytometer under light microscope, and inhibition rates of infiltration of inflammatory cells against the control group were calculated. Further, muchin in the airway lavage fluid was measured by ELIZA method using jacalin, a muchin-binding lectin, and the inhibition rates of mucus-secretion against the control group were calculated.

The target in data set [2] is T1, DP receptor. The data set is described as follows: Receptor binding assay, [3H]-PGD2, platelet membrane. The following applies: [3H]-PGD2, human platelet membrane, on ice 2 hours. The method, then:
2) Receptor Binding Assay A prepared WP was homogenated and a membrane fraction was collected with high-speed centrifugation. A compound of the present invention or a reference compound A(No. IC-73 in WO 2003/097598) was added to the plate and [^3H]-PGD2 was also added. A platelet membrane, a protein concentration is 2 mg/mL, was added and mixed in the plate, and placed on ice for 2 hours. The reaction solution was transferred to a low protein-adsorptive filter and washed with a wash solution eight times using a cell harvester. After the final washing, water was removed sufficiently, and micoscinti was added. DP inhibitory activity was investigated by measuring [^3H] by using Micro Beta.

Structures can show the parent of a compound that is named as a salt.

Regarding `CC(C)Oc1ccc(S(=O)(=O)N2CC[C@H](c3cn(CC(=O)O)c4ccc(Cl)cc34)C2)cc1` (as salt: TFA) [Compound I-62], the melting point (in general, the temperature, or range, at which the solid turns liquid) is 188 to 189 °C.

Regarding `CC(C)Oc1ccc(S(=O)(=O)N2CC[C@@H](c3cn(CC(=O)O)c4ccc(Cl)cc34)C2)cc1` (as salt: TFA) [Compound I-65], the melting point turned out to be 167 °C.

As for `CC(C)Oc1ccc(S(=O)(=O)N2CCC(c3cn(CC(=O)O)c4cc(-c5ccco5)ccc34)C2)cc1` (stereo not drawn) [Compound I-77], on DP receptor [1], the IC50 came to 0.62 nM. Besides, in the data set with Brown Norway (BN) Rats, the “inhibition rate (%) increased hyperresponsive airway” value is given as 110%, the “inhibition rate (%) mucus-secretion” value worked out at 72% and the “inhibition rate (%) infiltration of inflammatory cells” value is 28%. Moreover, at DP receptor [2], the Ki (in general, a measure of affinity in units of concentration, obtained from inhibition or displacement) was 0.37 nM.

As to `CC(C)Oc1ccc(S(=O)(=O)N2CC[C@@H](c3cn(CC(=O)O)c4cc(-c5ncco5)ccc34)C2)cc1` [Compound I-103], the IC50 at DP receptor [1] was found to be 0.14 nM. Besides, in the data set on Brown Norway (BN) Rats, the “inhibition rate (%) increased hyperresponsive airway” value was 71%, the “inhibition rate (%) mucus-secretion” value is given as 52% and the “inhibition rate (%) infiltration of inflammatory cells” value is on record as 58%. In addition, at DP receptor [2], the affinity, expressed as Ki, was 20 nM.
